Experimental findings from patent US10053417B2, “Neprilysin inhibitors” (THERAVANCE BIOPHARMA R&D IP, LLC, priority 2013, dated 2018) are described below.

Bounds are passed on as bounds.

The term Ki denotes the dissociation constant of the complex between target and ligand, obtained from inhibition or displacement.

For the test, the target named is T1, human NEP (Homo sapiens, UniProt P08473).
T1 construct: purchased R&D Systems, Minneapolis, Minn; 1182-ZN
T1 sequence (P08473 52-750 limits assumed): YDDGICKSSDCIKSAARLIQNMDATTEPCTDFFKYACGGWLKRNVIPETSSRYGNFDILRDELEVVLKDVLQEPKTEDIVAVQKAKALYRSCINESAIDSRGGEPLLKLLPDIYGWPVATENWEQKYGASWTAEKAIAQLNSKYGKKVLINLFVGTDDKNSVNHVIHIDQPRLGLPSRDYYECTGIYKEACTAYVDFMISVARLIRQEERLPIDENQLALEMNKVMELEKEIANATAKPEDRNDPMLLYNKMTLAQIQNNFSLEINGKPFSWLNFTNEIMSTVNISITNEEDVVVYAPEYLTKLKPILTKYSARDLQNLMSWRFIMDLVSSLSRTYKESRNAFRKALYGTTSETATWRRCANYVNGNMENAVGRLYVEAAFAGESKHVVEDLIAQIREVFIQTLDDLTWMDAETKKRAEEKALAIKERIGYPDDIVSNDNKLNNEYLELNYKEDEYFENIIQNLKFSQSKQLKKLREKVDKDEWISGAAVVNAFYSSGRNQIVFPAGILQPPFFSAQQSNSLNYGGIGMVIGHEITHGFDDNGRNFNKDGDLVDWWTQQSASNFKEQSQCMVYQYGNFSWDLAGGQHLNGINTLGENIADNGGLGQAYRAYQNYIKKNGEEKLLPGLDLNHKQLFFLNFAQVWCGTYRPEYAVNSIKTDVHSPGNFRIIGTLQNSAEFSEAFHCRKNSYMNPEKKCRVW
Nature of the test: In vitro enzyme inhibition assay, inhibitor potency at human NEP (Assay 1). The test is classed as biochemical. The following applies: recombinant human NEP; fluorogenic peptide substrate 10 μM; 37° C.; values given as ranges. The procedure: The inhibitory activities of compounds at human and rat neprilysin (EC 3.4.24.11; NEP) and human angiotensin converting enzyme (ACE) were determined using in vitro assays as described below.
Recombinant human NEP and recombinant human ACE were obtained commercially (R&D Systems, Minneapolis, Minn., catalog numbers 1182-ZN and 929-ZN, respectively). The fluorogenic peptide substrate Mca-D-Arg-Arg-Leu-Dap-(Dnp)-OH (Medeiros et al. (1997) Braz. J. Med. Biol. Res. 30:1157-62; Anaspec, San Jose, Calif.) and Abz-Phe-Arg-Lys(Dnp)-Pro-OH (Araujo et al. (2000) Biochemistry 39:8519-8525; Bachem, Torrance, Calif.) were used in the NEP and ACE assays respectively.
The assays were performed in 384-well white opaque plates at 37° C. using the fluorogenic peptide substrates at a concentration of 10 μM in Assay Buffer (NEP: 50 mM HEPES, pH 7.5, 100 mM NaCl, 0.01% polyethylene glycol sorbitan monolaurate (Tween-20), 10 μM ZnSO4; ACE: 50 mM HEPES, pH 7.5, 100 mM NaCl, 0.01% Tween-20, 1 μM ZnSO4).
Test compounds were assayed over the range of concentrations from […] to 20 μM. Test compounds were added to the enzymes and incubated for 30 minute at 37° C. prior to initiating the reaction by the addition of substrate. Reactions were terminated after 20 minutes of incubation at 37° C. by the addition of glacial acetic acid to a final concentration of 3.6% (v/v).
Plates were read on a fluorometer with excitation and emission wavelengths set to 320 nm and 405 nm, respectively. Inhibition constants were obtained by nonlinear regression of the data using the equation (GraphPad Software, Inc., San Diego, Calif.): ν=ν0/[1+(I/K′)] where ν is the reaction rate, ν0 is the uninhibited reaction rate, I is the inhibitor concentration and K′ is the apparent inhibition constant.
Compounds of the invention were tested in this assay and found to have pKi values at human NEP as follows.
With `CN(O)C(=O)C(=O)N[C@H](Cc1ccc(-c2cccc(Cl)c2)cc1)C[C@@H](O)C(=O)O` [Example 4-10, (2R,4R)-5-(3′-Chlorobiphenyl-4-yl)-2-hydroxy-4-[(hydroxymethylaminooxalyl)-amino]pentanoic acid], the pKi is given as 7.5-8.0.

In the case of `CN(C)C(=O)C(=O)N[C@H](Cc1ccc(-c2cccc(Cl)c2)cc1)C[C@@H](O)C(=O)O` [Example 4-11, (2R,4R)-5-(3′-Chlorobiphenyl-4-yl)-4-(dimethylaminooxalylamino)-2-hydroxy-pentanoic acid], the Ki is 10 to 31.6 nM. For `CON(C)C(=O)C(=O)N[C@H](Cc1ccc(-c2cccc(Cl)c2)cc1)C[C@@H](O)C(=O)O` [Example 4-12, (2R,4R)-5-(3′-Chlorobiphenyl-4-yl)-2-hydroxy-4-[(methoxymethylaminooxalyl)-amino]pentanoic acid], the Ki is 1 to 10 nM.

Take `O=C(N[C@H](Cc1ccc(-c2cccc(Cl)c2)cc1)C[C@@H](O)C(=O)O)C(=O)N1CC(O)C1` [Example 4-13, (2R,4R)-5-(3′-Chlorobiphenyl-4-yl)-2-hydroxy-4-[2-(3-hydroxyazetidin-1-yl)-2-oxo-acetylamino]pentanoic acid]: the Ki was 1 to 10 nM. On to `O=C(N[C@H](Cc1ccc(-c2cccc(Cl)c2)cc1)C[C@@H](O)C(=O)O)C(=O)N1CC(F)(F)C1` [Example 4-14, (2R,4R)-5-(3′-Chlorobiphenyl-4-yl)-4-[2-(3,3-difluoroazetidin-1-yl)-2-oxo-acetylamino]-2-hydroxypentanoic acid], for which the Ki is 10 to 31.6 nM. As for `CS(=O)(=O)C1CCN(C(=O)C(=O)N[C@H](Cc2ccc(-c3cccc(Cl)c3)cc2)C[C@@H](O)C(=O)O)C1` (stereo partly drawn) [Example 4-15, (2R,4R)-5-(3′-Chlorobiphenyl-4-yl)-2-hydroxy-4-[2-(3-methanesulfonyl-pyrrolidin-1-yl)-2-oxo-acetylamino]pentanoic acid], the Ki was 1 to 10 nM.

On to `O=C(N[C@H](Cc1ccc(-c2cccc(Cl)c2)cc1)C[C@@H](O)C(=O)O)C(=O)N1CCC[C@@H]1CO` [Example 4-16, (2R,4R)-5-(3′-Chlorobiphenyl-4-yl)-2-hydroxy-4-[2-((R)-2-hydroxymethyl-pyrrolidin-1-yl)-2-oxo-acetylamino]pentanoic acid], for which the Ki was 1 to 10 nM. Regarding `NC(=O)C1CCN(C(=O)C(=O)N[C@H](Cc2ccc(-c3cccc(Cl)c3)cc2)C[C@@H](O)C(=O)O)C1` (stereo partly drawn) [Example 4-17, (2R,4R)-4-[2-(3-Carbamoylpyrrolidin-1-yl)-2-oxo-acetylamino]-5-(3′-chloro-biphenyl-4-yl)-2-hydroxypentanoic acid], the Ki was 10 to 31.6 nM.

For the compound `O=C(N[C@H](Cc1ccc(-c2cccc(Cl)c2)cc1)C[C@@H](O)C(=O)O)C(=O)N1CCC(O)CC1` [Example 4-18, (2R,4R)-5-(3′-Chlorobiphenyl-4-yl)-2-hydroxy-4-[2-(4-hydroxy-piperidin-1-yl)-2-oxo-acetylamino]pentanoic acid], the inhibition constant Ki was ≤ 1 nM. On to `COCC1CCN(C(=O)C(=O)N[C@H](Cc2ccc(-c3cccc(Cl)c3)cc2)C[C@@H](O)C(=O)O)CC1` [Example 4-19, (2R,4R)-5-(3′-Chlorobiphenyl-4-yl)-2-hydroxy-4-[2-(4-methoxymethyl-piperidin-1-yl)-2-oxo-acetylamino]pentanoic acid], for which the Ki was 10 to 31.6 nM. For the compound `O=C(N[C@H](Cc1ccc(-c2cccc(Cl)c2)cc1)C[C@@H](O)C(=O)O)C(=O)N1CCC(CO)CC1` [Example 4-20, (2R,4R)-5-(3′-Chlorobiphenyl-4-yl)-2-hydroxy-4-[2-(4-hydroxymethyl-piperidin-1-yl)-2-oxo-acetylamino]pentanoic acid], the Ki is ≤ 1 nM. Regarding `O=C(N[C@H](Cc1ccc(-c2cccc(Cl)c2)cc1)C[C@@H](O)C(=O)O)C(=O)N1CCC[C@@H](O)C1` [Example 4-21, (2R,4R)-5-(3′-Chlorobiphenyl-4-yl)-2-hydroxy-4-[2-((R)-3-hydroxy-piperidin-1-yl)-2-oxo-acetylamino]pentanoic acid], the Ki is 1 to 10 nM.
